A short description of test [1]: mouse hot plate assay (48° C.). The format is in vivo, mice. The following applies: mouse hot plate 48° C. The method, then:
The test was essentially described by N. Eddy and D. Leimbach, Synthetic Analgesics II Dithienylbutenyl- and Dithienylbutylamines, J. Pharmacol. Exp. Ther., 107, 385-93 (1953) and J. O'Callaghan and S. Holtzman, Qualification of the Analgesic Activity of Narcotic Antagonists by a Modified Hot-Plate Procedure, J. Pharmacol. Exp. Ther, 192, 497-505 (1975), with minor modifications. Mice were placed on a heated surface (48° C.) and the time interval (seconds) between placement and a shaking, licking, or tucking of the hind paw was recorded as the predrug latency response. This procedure was repeated 30 minutes after the administration of a test compound (p.o., 10 mL/kg). The percent maximum possible antinociceptive effect (% MPE) was determined using the following formula: % MPE=100×(Test latency-Predrug latency)/(Cutoff time-Predrug Latency), using the predrug latency of each animal and cutoff time established to prevent injury to the animal. The cutoff time was 90s.
The ED50 value and 95% confidence intervals were determined using a computer-assisted linear regression analysis of the dose-response curve, including an analysis of variance test for linearity. Oral dosing of Compound 58 produced an analgesic effect after 15 min. This effect lasted for one hour.

The next test has as its target T1, α2-adrenergic receptor (Rattus norvegicus, UniProt P22909).
T1 construct: aliquots of the synaptic membrane fraction, the ligand; from tissue; host or cells: cerebral cortex synaptic membranes of male Wistar rats
T1 sequence (P22909 1-465): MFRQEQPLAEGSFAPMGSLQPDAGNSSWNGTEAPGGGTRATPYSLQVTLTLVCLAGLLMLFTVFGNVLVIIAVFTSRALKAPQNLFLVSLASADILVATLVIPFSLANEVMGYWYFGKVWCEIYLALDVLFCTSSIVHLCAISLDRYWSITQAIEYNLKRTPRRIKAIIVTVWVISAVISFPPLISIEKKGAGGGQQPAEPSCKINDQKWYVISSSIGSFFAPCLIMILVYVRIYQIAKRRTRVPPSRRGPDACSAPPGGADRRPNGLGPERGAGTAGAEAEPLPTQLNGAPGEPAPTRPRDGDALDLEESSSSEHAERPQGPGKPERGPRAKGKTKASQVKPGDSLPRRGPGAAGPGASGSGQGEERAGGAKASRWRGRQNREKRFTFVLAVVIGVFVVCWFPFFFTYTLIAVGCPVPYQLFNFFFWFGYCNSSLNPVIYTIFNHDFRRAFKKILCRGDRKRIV
Kind of test: α2-adrenergic receptor binding (3H-para-aminoclonidine, rat cortex synaptic membranes). Further details: species or system rat (Wistar). The following applies: 25° C., 20 min. Here is the method:
The α2 -adrenergic activity of the compounds was determined by the following in vitro assay. Male, Wistar rats (150-250 g, VAF, Charles River, Kingston, N.Y.) were sacrificed by cervical dislocation and their brains removed and immediately placed in ice cold HEPES buffered sucrose. The cortex was dissected out and homogenized in 20 volumes of HEPES sucrose in a Teflon®-glass homogenizer. The homogenate was centrifuged at 1000×g for 10 min, and the resulting supernatant centrifuged at 42,000×g for 10 min. The resulting pellet was resuspended in 30 volumes of 3 mM potassium phosphate buffer, pH 7.5, preincubated at 25° C. for 30 min and recentrifuged. The resulting pellet was resuspended as described above and used for the receptor binding assay. Incubation was performed in test tubes containing phosphate buffer, 2.5 mM MgCl2, aliquots of the synaptic membrane fraction, the ligand ^3 H-para-aminoclonidine and test drug at 25° C. for 20 min. The incubation was terminated by filtration of the tube contents through glass fiber filter sheets. The sheets were washed with 10 mM HEPES buffer and the adhering radioactivity was quantified by liquid scintillation spectrometry.
Dose-response data are analyzed with LIGAND, a nonlinear curve fitting program designed specifically for the analysis of ligand binding data. […]

Test [2] is described as follows: mouse acetylcholine bromide-induced abdominal constriction assay. The format is in vivo, mice (Male, Cr1:CD-1). The method, then:
The analgesic activity of compounds of Formula I were determined in the following in vivo assay. The procedure was run essentially as described by H. Collier et al. in B. J. Pharmacol. Chemother., 32: 295-310, 1968, with minor modifications. Mice (Male, Cr1:CD-1, Charles River Laboratories) were used in the following example. The test drugs or appropriate vehicle were administered orally (10 mL/kg, p.o.) or subcutaneously (10 mL/kg, s.c.) and 30 minutes later the animal received an intraperitoneal (i.p.) injection of 5.5 mg/kg acetylcholine bromide. The mice were then placed in glass bell jars and observed for a ten minute observation period for the occurrence of an abdominal constriction response (defined as a wave of constriction and elongation passing caudally along the abdominal wall, accompanied by a twisting of the trunk and followed by extension of the hind limbs). The percent inhibition of this response to antinociceptive stimulus (equated to % analgesia) was calculated as follows: The % inhibition of response, i.e., % analgesia is equal to the number of non-responding drug-treated animals×100 divided by the number of animals in the group.
The ED50 values and their 95% fiducial limits were determined by a computer assisted probit analysis. […] This effect lasted for 4-5 hours.
Table A lists the % inhibition for some compounds of the invention. Unless otherwise indicated the compounds were administered s.c. at 30 mg/kg. [drawing 63]

Where [3] appears, read: mouse abdominal constriction, oral dosing.

Consider `CN1CC2CCc3[nH]c4ccccc4c3C2C1` (single isomer, unassigned) [Compound 58], for which, in test [1] (oral dosing), the “analgesic effect, time after oral dosing” value stood at 15 min. Besides, the ED50 in test [1] (po, 0.5 h, p.o., cutoff 90s, read-out: ED50) was determined as 14.2 mg/kg; in test [2] (mouse acetylcholine abdominal constriction, probit analysis, read-out: ED50), 5.8 mg/kg. The compound also returned a Ki at α2-adrenergic receptor of 9.4 nM. In test [2] (Mus musculus, 0.5 h, 30 mg/kg po, acetylcholine bromide 5.5 mg/kg i.p. 30 min later, read-out: % inhibition @ 30 mg/kg (po)), the responders at 30 mg/kg amounted to 100%. The “analgesic effect observed, time after oral dosing” value in test [2] (setting [3]) was found to be 15 min. Besides, the “duration of analgesic effect” value in test [2] (setting [3]) fell in the range of 4 to 5 h.

Source of the values: patent US6063803A, “Octahydropyrrolo-[3,4-c]carbazoles useful as analgesic agents” (Ortho-McNeil Pharmaceutical, Inc., priority 1999, dated 2000).
